# Measurements: patent US20240000872A1, “NOVEL BACTERIOPHAGE THAT LYSES ACINETOBACTER GENUS BACTERIA HAVING RESISTANCE TO ANTIBIOTICS” (priority 2020, published 2024)
# Test system: Acinetobacter baumannii strains
# Experiment: Antibiotic susceptibility test (CLSI disk diffusion test method, read per CLSI 2016); on antibiotic susceptibility S/I/R: key: ‘S’ means susceptible; ‘I’ means intermediate; ‘R’ means resistant; on antibiotic susceptibility class: key: ‘S’ means susceptible; ‘I’ means intermediate; ‘R’ means resistant; on susceptibility category (S/I/R): key: ‘S’ means susceptible; ‘I’ means intermediate; ‘R’ means resistant
# Type: cell-based
# Parameters: antibiotic susceptibility test value / susceptibility test value (number given before S/I/R) / antibiotic susceptibility value: unit not given here
substance,measurement,setting,value
gentamicin,antibiotic susceptibility test value,host strain YMC14/01/U318,16
same,antibiotic susceptibility class,host strain YMC14/02/L18,R
same,antibiotic susceptibility test value,host strain YMC14/02/L18,16
same,antibiotic susceptibility class,host strain YMC14/02/P47,R
same,antibiotic susceptibility test value,host strain YMC14/02/P47,16
same,antibiotic susceptibility class,host strain YMC14/02/R1860,I
same,antibiotic susceptibility test value,host strain YMC14/02/R1860,8
same,antibiotic susceptibility class,host strain YMC14/02/R2417,R
same,antibiotic susceptibility test value,host strain YMC14/02/R2417,16
same,antibiotic susceptibility class,host strain YMC14/02/R2599,S
same,antibiotic susceptibility test value,host strain YMC14/02/R2599,2
same,antibiotic susceptibility class,host strain YMC14/02/R2668,R
same,antibiotic susceptibility test value,host strain YMC14/02/R2668,16
same,antibiotic susceptibility class,host strain YMC14/02/R2758,R
same,antibiotic susceptibility test value,host strain YMC14/02/R2758,16
same,antibiotic susceptibility class,host strain YMC14/02/R2781,R
same,antibiotic susceptibility test value,host strain YMC14/02/R2781,16
same,antibiotic susceptibility class,host strain YMC14/02/R3106,R
same,antibiotic susceptibility test value,host strain YMC14/02/R3106,16
same,antibiotic susceptibility class,host strain YMC14/02/R3419,R
same,antibiotic susceptibility test value,host strain YMC14/02/R3419,16
same,antibiotic susceptibility class,host strain YMC14/02/U1607,R
same,antibiotic susceptibility test value,host strain YMC14/02/U1607,16
same,antibiotic susceptibility class,host strain YMC14/03/L9,R
same,antibiotic susceptibility test value,host strain YMC14/03/L9,16
same,antibiotic susceptibility class,host strain YMC14/03/P471,S
same,antibiotic susceptibility test value,host strain YMC14/03/P471,2
same,antibiotic susceptibility class,host strain YMC14/03/R122,R
same,antibiotic susceptibility test value,host strain YMC14/03/R122,16
same,antibiotic susceptibility class,host strain YMC14/03/R217,R
same,antibiotic susceptibility test value,host strain YMC14/03/R217,16
same,antibiotic susceptibility class,host strain YMC14/03/R380,R
same,antibiotic susceptibility test value,host strain YMC14/03/R380,16
same,antibiotic susceptibility class,host strain YMC14/03/R618,S
same,antibiotic susceptibility test value,host strain YMC14/03/R618,2
same,antibiotic susceptibility class,host strain YMC14/03/R2144,R
same,antibiotic susceptibility test value,host strain YMC14/03/R2144,16
same,antibiotic susceptibility class,host strain YMC14/03/U4616,R
same,antibiotic susceptibility test value,host strain YMC14/03/U4616,16
same,antibiotic susceptibility class,host strain YMC14/04/R1078,S
same,antibiotic susceptibility test value,host strain YMC14/04/R1078,2
same,antibiotic susceptibility class,host strain YMC14/04/R1080,S
same,antibiotic susceptibility test value,host strain YMC14/04/R1080,2
same,antibiotic susceptibility S/I/R,host strain YMC14/06/R2359,R
same,antibiotic susceptibility value,host strain YMC14/06/R2359,16
same,susceptibility category (S/I/R),host strain YMC14/06/R2359,R
same,susceptibility test value (number given before S/I/R),host strain YMC14/06/R2359,16
same,antibiotic susceptibility S/I/R,host strain YMC14/08/R1169,R
same,antibiotic susceptibility value,host strain YMC14/08/R1169,16
same,susceptibility category (S/I/R),host strain YMC14/08/R1169,R
same,susceptibility test value (number given before S/I/R),host strain YMC14/08/R1169,16
same,antibiotic susceptibility S/I/R,host strain YMC14/08/T90,R
same,antibiotic susceptibility value,host strain YMC14/08/T90,16
same,susceptibility category (S/I/R),host strain YMC14/08/T90,R
same,susceptibility test value (number given before S/I/R),host strain YMC14/08/T90,16
same,antibiotic susceptibility S/I/R,host strain YMC15/02/R436,R
same,antibiotic susceptibility value,host strain YMC15/02/R436,16
same,susceptibility category (S/I/R),host strain YMC15/02/R436,R
same,susceptibility test value (number given before S/I/R),host strain YMC15/02/R436,16
same,antibiotic susceptibility S/I/R,host strain YMC15/02/T28,R
same,antibiotic susceptibility value,host strain YMC15/02/T28,16
same,susceptibility category (S/I/R),host strain YMC15/02/T28,R
same,susceptibility test value (number given before S/I/R),host strain YMC15/02/T28,16
same,antibiotic susceptibility S/I/R,host strain YMC15/03/R1604,R
same,antibiotic susceptibility value,host strain YMC15/03/R1604,16
same,susceptibility category (S/I/R),host strain YMC15/03/R1604,R
same,susceptibility test value (number given before S/I/R),host strain YMC15/03/R1604,16
same,antibiotic susceptibility S/I/R,host strain YMC15/09/R1869,R
same,antibiotic susceptibility value,host strain YMC15/09/R1869,16
same,susceptibility category (S/I/R),host strain YMC15/09/R1869,R
same,susceptibility test value (number given before S/I/R),host strain YMC15/09/R1869,16
same,antibiotic susceptibility S/I/R,host strain YMC16/01/P11,R
same,antibiotic susceptibility value,host strain YMC16/01/P11,16
same,susceptibility category (S/I/R),host strain YMC16/01/P11,R
same,susceptibility test value (number given before S/I/R),host strain YMC16/01/P11,16
same,antibiotic susceptibility S/I/R,host strain YMC16/01/R123,R
same,antibiotic susceptibility value,host strain YMC16/01/R123,16
same,susceptibility category (S/I/R),host strain YMC16/01/R123,R
same,susceptibility test value (number given before S/I/R),host strain YMC16/01/R123,16
same,antibiotic susceptibility S/I/R,host strain YMC16/01/R198,R
same,antibiotic susceptibility value,host strain YMC16/01/R198,16
same,susceptibility category (S/I/R),host strain YMC16/01/R198,R
same,susceptibility test value (number given before S/I/R),host strain YMC16/01/R198,16
same,antibiotic susceptibility S/I/R,host strain YMC16/01/R353,R
